# Experimental data reported in patent publication USRE34387E, “Method for restoring depleted purine nucleotide pools” (priority 1988, dated 1993).
# Key:
# [1] = Serum urate concentrations after AICAriboside infusion; assay type: in vivo, adult mongrel dogs; conditions: following infusion of 8 mmol
# Experimental: Animal Preparation--Seven adult mongrel dogs were anesthetized intramuscularly with 40 mg of morphine sulfate and intravenously with 80 mg/kg of chloralose, an endotraceal tube was inserted, and ventilation was maintained with an Emerson volume-cycled respirator and 100% oxygen. The heart was exposed through a left lateral thoracotomy, polyvinyl chloride catheters (3-mm outer diameter) were inserted into the left atrium and into the aorta through the right femoral artery, and a Statham TTQ electromagnetic flow meter probe was positioned around the ascending aorta. […] Aortic flow was measured with a Howell Instruments Series 1000 Flowmeter, and stroke volume and cardiac output were calculated from the aortic flow measurement. All hemodynamic data were monitored continuously throughout the course of the study. […]
# After hemodynamic parameters had stabilized, regional myocardial blood flow was measured by injecting radioactively labled microspheres. […] Venous and arterial blood samples were also obtained at 42 min. of infusion, and regional myocardial blood flow was measured at 10 and 39 min. of AICAriboside infusion. […]
# Other Methods--Serum urate was determined by the enzymatic spectrophotometric method as previously described in Liddle et al., J. Lab. […]
# [2] = system: cardiovascular system; parameters: species or system adult mongrel dogs; conditions: dog, in vivo
# Experimental: Animal Preparation--Seven adult mongrel dogs were anesthetized intramuscularly with 40 mg of morphine sulfate and intravenously with 80 mg/kg of chloralose, an endotraceal tube was inserted, and ventilation was maintained with an Emerson volume-cycled respirator and 100% oxygen. The heart was exposed through a left lateral thoracotomy, polyvinyl chloride catheters (3-mm outer diameter) were inserted into the left atrium and into the aorta through the right femoral artery, and a Statham TTQ electromagnetic flow meter probe was positioned around the ascending aorta. The aortic pressure catheter was connected to a Statham P23 Db transducer (Statham Instruments, Inc., Oxnard, Calif.) with the zero reference at the midchest level. Aortic flow was measured with a Howell Instruments Series 1000 Flowmeter, and stroke volume and cardiac output were calculated from the aortic flow measurement. All hemodynamic data were monitored continuously throughout the course of the study. In 5 of the animals, the skin of the left dorsal hindlimb was opened and the gastrocnemius muscle was identified for subsequent tissue sampling.
# After hemodynamic parameters had stabilized, regional myocardial blood flow was measured by injecting radioactively labled microspheres. Tissue samples were obtained from the left ventricle and from the left gastrocnemius muscle. A venous blood sample was also obtained. AICAriboside (100 mM) was then infused into the left atrium at 1.9 ml/min. Repeat tissue samples were taken from the left ventricle at 15, 30 and 42 min. of infusion, and tissue samples were taken from the gastrocnemius muscle at 30 min. of infusion. Venous and arterial blood samples were also obtained at 42 min. of infusion, and regional myocardial blood flow was measured at 10 and 39 min. of AICAriboside infusion. AICAriboside infusion was terminated after 42 min., and tissue samples were taken from the left ventricle at 10, 20, 30 and 60 min. postinfusion and from the left gastrocnemius muscle at 2,22 and 60 min. postinfusion. Venous blood samples were obtained at 10, 30 and 60 min. after AICAriboside infusion. In 4 of the 7 dogs, 400 mM formate was infused intravenously at the rate of 1.9 ml/min. for 42 min. prior to and during AICAriboside infusion. These same animals also received 6 mg of folinic acid as an intravenous bolus 30 min. prior to and 15 min. after initiating AICAriboside infusion.
# [3] = system: myocardium; test: Regional myocardial blood flow, coronary occlusion and 24 hr reperfusion; assay type: in vivo, dogs; conditions: any time point
# Experimental: (§1) Catheters were placed in the left atrium and aorta, and a snare positioned around the left anterior descending coronary artery in 15 open-chest dogs. Regional myocardial blood flow was measured and transmural tissue samples were obtained using known techniques. Blood flow measurements and tissue samples were obtained prior to and just before release of a 12-minute coronary occlusion. The chest was closed and the animals allowed to awaken. Twenty-four hours later, the animals were anesthetized, the chest opened, blood flow measured, and tissue samples obtained. No hemodynamic measurements were made on the animals.
# (§2) In seven animals, 200 mM AICAriboside (Sigma Chemical Co.) was infused into the left atrial catether at either 14 μmol/min (n=2) or 37 μmol/min (n=5) beginning with coronary occlusion and continuing for 24 hours. Eight control animals were infused with an equal volume of saline over 24 hours.
# (§3) All comparisons between AICAriboside and saline treated animals were done by unpaired analyses.
# [4] = system: postischemic myocardium; test: Nucleotide and creatine phosphate content in postischemic myocardium; assay type: in vivo, dogs
# Experimental: as §1, §2
# Nucleotide and creatine phosphate analyses were performed by high performance liquid chromatography on acid extracts of the tissue as previously described. Nucleotide analysis is described in Example 1, and creatine phosphate analysis is described in Juengling and Kammermeier, Anal. Biochem., 102, 358-361 (1980).
# as §3
# [5] = system: skeletal muscle (gastrocnemius); test: Purine metabolism in skeletal muscle during and after AICAriboside infusion
# [6] = system: Cardiac muscle; test: Purine metabolism in normal cardiac muscle during and after AICAriboside infusion
# [7] = endo, preocclusion (before infusion)
# [8] = epi, preocclusion (before infusion)
# [9] = before, during or after infusion, detection limit 3 nmol/g
# [10] = skeletal muscle, infusion and up to 60 min thereafter
# [11] = myocardial, throughout the study
structure (smiles),measurement,setting,value
"NC(=O)c1ncn([C@@H]2O[C@H](CO)[C@@H](O)[C@H]2O)c1N [AICAriboside, 5-amino-4-imidazolecarboxamide riboside]",mean serum urate concentration increase,[1],3.7 fold
same,Heart rate,[2],not significantly altered
same,aortic systolic and diastolic pressure,[2],not significantly altered
same,cardiac output,[2],not significantly altered
same,epicardial and endocardial regional blood flow,[2],not significantly altered
same,regional flow versus saline group,[3],no differences in regional flow at any time point
same,GTP content versus saline,"[4]; 24 hours reperfusion, epicardium and endocardium, P<0.003",greater in the AICAriboside group
same,epicardial and endocardial ATP content versus saline,"[4]; 24 hours reperfusion, previously ischemic region, P<0.001",greater in the AICAriboside group
same,GTP content restoration,"[4]; 24 hours, saline 82% (epi), 78% (endo) of nonischemic",restored to nonischemic levels
same,ATP content increase after reperfusion,"[4]; endo, 24 hours, saline group 21%",63%
same,ADP,[4]; [7],0.92 ± 0.03 μmol/g wet wt
same,AMP,[4]; [7],0.066 ± 0.007 μmol/g wet wt
same,CP (creatine phosphate),[4]; [7],6.8 ± 0.7 μmol/g wet wt
same,CTP,[4]; [7],0.055 ± 0.001 μmol/g wet wt
same,IMP,[4]; [7],0.004 ± 0.001 μmol/g wet wt
same,NAD,[4]; [7],0.058 ± 0.04 μmol/g wet wt
same,UTP,[4]; [7],0.132 ± 0.004 μmol/g wet wt
same,ATP content increase after reperfusion,"[4]; epi, 24 hours, saline group 2%",41%
same,ADP,[4]; [8],0.87 ± 0.03 μmol/g wet wt
same,AMP,[4]; [8],0.064 ± 0.016 μmol/g wet wt
same,CP (creatine phosphate),[4]; [8],7.7 ± 0.6 μmol/g wet wt
same,IMP,[4]; [8],0.005 ± 0.002 μmol/g wet wt
same,NAD,[4]; [8],0.060 ± 0.02 μmol/g wet wt
same,UTP,[4]; [8],0.122 ± 0.005 μmol/g wet wt
same,ATP percentage drop during ischemia versus saline,[4]; occlusion,comparable in both groups
same,AMP or ADP content versus saline,[4]; postischemic region,no detectable differences
same,CTP content versus saline,[4]; postischemic region,no statistically significant differences
same,NAD+ content versus saline,[4]; postischemic region,no statistically significant differences
same,Total adenine nucleotide content versus saline,[4]; postischemic region,also greater in the AICAriboside group
same,UTP content versus saline,[4]; postischemic region,no statistically significant differences
same,Adenylosuccinate in biopsies,[5]; [9],not detectable
same,AICAriboside concentration after infusion was stopped,[5]; skeletal muscle,fell rapidly in both tissues
same,IMP content rise,[5]; skeletal muscle,6-7 fold
same,creatine phosphate content,"[5]; skeletal muscle, 10.6±0.5 μmol/g at beginning",did not vary significantly
same,NAD+ content,"[5]; skeletal muscle, did not vary throughout infusion",0.32 ± 0.04 µmol/g
same,Adenosine,"[5]; skeletal muscle, during infusion",did not increase
same,hypoxanthine content,[5]; [10],consistently elevated
same,inosine content,[5]; [10],consistently elevated
same,"mean AICAriboside content of cardiac muscle, greater than that of skeletal muscle",[6]; 30 min of infusion,66%
same,uptake by myocardial cells,[6]; Example 1,taken up rapidly by myocardial cells
same,Adenylosuccinate in biopsies,[6]; [9],not detectable
same,time of AICAR peak,[6]; cardiac and skeletal muscle,peaked minutes after AICAriboside infusion was stopped
same,IMP content increase,[6]; cardiac muscle,3-4 fold
same,myocardial content of CTP,[6]; cardiac muscle,no detectable change
same,adenylate energy charge,"[6]; cardiac muscle, 0.929±0.003 before infusion",did not vary during the course of the experiment
same,creatine phosphate content,"[6]; cardiac muscle, 6.8±0.4 μmol/g at beginning",did not vary significantly
same,TAN (total adenine nucleotide),"[6]; cardiac muscle, 20 min postinfusion",6.70 ± 0.10 μmol/g. wet weight
same,Adenosine,"[6]; cardiac muscle, during infusion",did not increase
same,AICAriboside concentration after infusion was stopped,"[6]; cardiac muscle, rate of decline greater than in skeletal",fell rapidly in both tissues
same,ADP change,"[6]; cardiac tissue, any time point",did not change significantly at any time point
same,AMP change,"[6]; cardiac tissue, any time point",did not change significantly at any time point
same,ATP content (increase to),"[6]; cardiac tissue, from 5.55±0.17, p<0.02","6.07±0.17 μmol/g , wet weight"
same,accumulation of AICAriboside-TP,[6]; cardiac versus skeletal muscle,greater in cardiac muscle
same,NAD+ content,"[6]; heart, did not vary throughout infusion",0.64 ± 0.01 µmol/g
same,hypoxanthine content,[6]; [11],only minimally increased
same,inosine content,[6]; [11],only minimally increased
same,distribution from plasma,[6]; similar concentrations in plasma and myocardium,readily diffuses from plasma into the interstitial space and intracellular compartments
